For 22 compounds, T/C results are on record in PubChem BioAssay AID192 (DTP/NCI, 2004).

Several values for one entry are separate records, joined by “and”; a condition that tells them apart may be missing. Identical values can stand only once. Inconclusive results and toxic doses are left out.

The experiment has as its system BDF1 mice, B16 melanoma ip, median survival T/C. The experiment can be described thus: NCI In Vivo Anticancer Drug Screen. Data for tumor model B16 Melanoma (intraperitoneal) in B6D2F1 (BDF1) mice. Conditions: endpoint: median survival time, higher = longer survival. Put shortly:
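Mice with transplantable tumors; drug vs vehicle groups; endpoint survival or tumor size; value = T/C.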

Setting [1] is: dose: 100.0 mg/kg/injection, schedule: Q01DX009 (ip), vehicle: Klucel (hydroxypropylcellulose) (HPC).
Where [2] appears, read: dose: 200.0 mg/kg/injection, schedule: Q01DX009 (ip), vehicle: Klucel (hydroxypropylcellulose) (HPC).
The mark [3] stands for this setting: dose: 400.0 mg/kg/injection, schedule: Q01DX009 (ip), vehicle: Klucel (hydroxypropylcellulose) (HPC).
[4] abbreviates: dose: 12.5 mg/kg/injection, schedule: Q01DX009 (ip), vehicle: Klucel (hydroxypropylcellulose) (HPC).
The mark [5] stands for this setting: dose: 25.0 mg/kg/injection, schedule: Q01DX009 (ip), vehicle: Klucel (hydroxypropylcellulose) (HPC).
Where [6] appears, read: dose: 25.0 mg/kg/injection, schedule: Q01DX009 (ip), vehicle: saline.
Setting [7] is: dose: 50.0 mg/kg/injection, schedule: Q01DX009 (ip), vehicle: saline.
[8] abbreviates: dose: 100.0 mg/kg/injection, schedule: Q01DX009 (ip), vehicle: saline with Tween-80.
[9] abbreviates: dose: 100.0 mg/kg/injection, schedule: Q01DX009 (ip), vehicle: saline.
Where [10] appears, read: dose: 1.56 mg/kg/injection, schedule: Q01DX009 (ip), vehicle: saline with Tween-80.
[11] abbreviates: dose: 6.25 mg/kg/injection, schedule: Q01DX009 (ip), vehicle: saline with Tween-80.
[12] abbreviates: dose: 12.5 mg/kg/injection, schedule: Q01DX009 (ip), vehicle: saline with Tween-80.
Where [13] appears, read: dose: 200.0 mg/kg/injection, schedule: Q01DX009 (ip), vehicle: saline with Tween-80.
The mark [14] stands for this setting: dose: 50.0 mg/kg/injection, schedule: Q01DX009 (ip), vehicle: saline with Tween-80.
Setting [15] is: dose: 25.0 mg/kg/injection, schedule: Q01DX009 (ip), vehicle: saline with Tween-80.

On to `OCC1OC(OC2(CO)OC(CO)C(O)C2O)C(O)C(O)C1O` (configuration not stated), for which the T/C is, setting by setting: (dose: 3.9 mg/kg/injection, schedule: Q01DX005 (ip), vehicle: saline) 104 % of control; (dose: 7.81 mg/kg/injection, schedule: Q01DX005 (ip), vehicle: saline) 87 % of control; (dose: 15.63 mg/kg/injection, schedule: Q01DX005 (ip), vehicle: saline) 105 % of control; (dose: 31.25 mg/kg/injection, schedule: Q01DX005 (ip), vehicle: saline) 104 % of control; (dose: 62.5 mg/kg/injection, schedule: Q01DX005 (ip), vehicle: saline) 105 % of control; (dose: 125.0 mg/kg/injection, schedule: Q01DX005 (ip), vehicle: saline) 105 % of control. Also, the T/C runs as follows: (dose: 250.0 mg/kg/injection, schedule: Q01DX005 (ip), vehicle: saline) 109 % of control; (dose: 500.0 mg/kg/injection, schedule: Q01DX005 (ip), vehicle: saline) 105 % of control; (dose: 1000.0 mg/kg/injection, schedule: Q01DX005 (ip), vehicle: saline) 104 % of control; (dose: 2000.0 mg/kg/injection, schedule: Q01DX005 (ip), vehicle: saline) 102 % of control.

`O=[N+]([O-])c1ccc(N2CCCC2)c([N+](=O)[O-])c1`: the T/C is 93 % of control under setting [1], 100 % of control under setting [2] and 100 % of control under setting [3].

On to `O=C1CN=C(c2ccccc2)c2cc(Cl)ccc2N1`, for which the T/C reads like this: (dose: 6.25 mg/kg/injection, schedule: Q01DX009 (ip), vehicle: Klucel (hydroxypropylcellulose) (HPC)) 102 % of control; under setting [4], 90 % of control; under setting [5], 90 % of control.

With `Cc1cccc(NC(=O)COc2ccc(Cl)cc2)c1C`, the T/C was 98 % of control under setting [6], 100 % of control under setting [7], 98 % of control under setting [8] and 105 % of control under setting [9].

On to `COc1ccc(CSC(=S)NNc2ccccc2)cc1`, for which the T/C reads like this: under setting [1], 107 % of control; under setting [2], 103 % of control; under setting [3], 106 % of control.

On to `CCCCCCC(O)CCCC` (configuration not stated), for which the T/C was 103 % of control (dose: 100.0 mg/kg/injection, schedule: Q01DX009 (ip), vehicle: other) and 90 % of control (dose: 200.0 mg/kg/injection, schedule: Q01DX009 (ip), vehicle: other).

As to `C[Se]c1ncnc2c1c(C#N)cn2C1OC(CO)C(O)C1O` (configuration not stated), the T/C by setting is: (dose: 3.12 mg/kg/injection, schedule: Q01DX009 (ip), vehicle: Klucel (hydroxypropylcellulose) (HPC)) 92 % of control; under setting [4], 97 % of control; under setting [5], 90 % of control.

With `CC(C)C(O)(C(=O)OCC1=CC[N+]2(C)CCC(O)C12)C(C)O` (configuration not stated), the T/C (dose: 12.5 mg/kg/injection, schedule: Q01DX009 (ip), vehicle: water) was 105 % of control; the T/C (dose: 25.0 mg/kg/injection, schedule: Q01DX009 (ip), vehicle: water) was 107 % of control; the T/C (dose: 50.0 mg/kg/injection, schedule: Q01DX009 (ip), vehicle: water) is 113 % of control; the T/C (dose: 100.0 mg/kg/injection, schedule: Q01DX009 (ip), vehicle: water) is 109 % of control; the T/C (dose: 200.0 mg/kg/injection, schedule: Q01DX009 (ip), vehicle: water) is 108 % of control.

Turning to `c1ccc2c(c1)nnn1c3cnccc3nc21`, the T/C runs as follows: under setting [10], 110 % of control; (dose: 3.12 mg/kg/injection, schedule: Q01DX009 (ip), vehicle: saline with Tween-80) 97 % of control and 111 % of control; under setting [11], 93 % of control and 107 % of control; under setting [12], 106 % of control and 121 % of control.

As for `COC(C(=O)C(O)C(C)O)C1Cc2cc3cc(OC4CC(OC(C)=O)C(OC5CC(O)C(OC)C(C)O5)C(C)O4)cc(O)c3c(O)c2C(=O)C1OC1CC(OC2CC(OC3CC(C)(O)C(OC(=O)C(C)C)C(C)O3)C(O)C(C)O2)C(O)C(C)O1` (configuration not stated), the T/C is 158 % of control (dose: 0.25 mg/kg/injection, schedule: Q01DX009 (ip), vehicle: saline with Tween-80); 154 % of control and 170 % of control (dose: 0.5 mg/kg/injection, schedule: Q01DX009 (ip), vehicle: saline); 173 % of control and 183 % of control (dose: 1.0 mg/kg/injection, schedule: Q01DX009 (ip), vehicle: saline); 173 % of control and 178 % of control (dose: 2.0 mg/kg/injection, schedule: Q01DX009 (ip), vehicle: saline).

With `CC(C(=O)O)C(NC(=O)OCc1ccccc1)C(=O)O` (configuration not stated), the T/C is 97 % of control (dose: 100.0 mg/kg/injection, schedule: Q04DX003 (ip), vehicle: other) and 89 % of control (dose: 200.0 mg/kg/injection, schedule: Q04DX003 (ip), vehicle: other).

Consider `COc1ccccc1N1C(=O)C=CC1=O`, for which the T/C (dose: 0.63 mg/kg/injection, schedule: Q01DX009 (ip), vehicle: saline with Tween-80) is 93 % of control; the T/C (dose: 1.25 mg/kg/injection, schedule: Q01DX009 (ip), vehicle: saline with Tween-80) was 89 % of control; the T/C (dose: 2.5 mg/kg/injection, schedule: Q01DX009 (ip), vehicle: saline with Tween-80) is 87 % of control.

Turning to `COC1=C(C)C(=O)C2=C(C1=O)C(CO)N1C(C#N)C3CC4C(C1C2N1CCOC41)N3C` (configuration not stated), the T/C was 117 % of control (dose: 0.25 mg/kg/injection, schedule: Q01DX009 (ip), vehicle: saline + alcohol); 117 % of control (dose: 0.5 mg/kg/injection, schedule: Q01DX009 (ip), vehicle: saline + alcohol); 112 % of control (dose: 1.0 mg/kg/injection, schedule: Q01DX009 (ip), vehicle: saline + alcohol).

As to `O=C1CC2C=CCC12` (configuration not stated), the T/C by setting is: under setting [8], 107 % of control; under setting [13], 100 % of control; (dose: 400.0 mg/kg/injection, schedule: Q01DX009 (ip), vehicle: saline with Tween-80) 91 % of control.

As to `Nc1nccnc1N`, the T/C runs as follows: under setting [14], 102 % of control; under setting [8], 88 % of control.

As to `COc1cc(/C=C/c2nc3ccccc3nc2/C=C/c2cc(OC)c(OC)c(OC)c2)cc(OC)c1OC`, the T/C runs as follows: under setting [11], 106 % of control; under setting [12], 97 % of control.

With `Cc1cc(C)c(C(Cl)(Cl)Cl)c(C)c1Cl`, the T/C is 93 % of control under setting [10]; 90 % of control (dose: 3.13 mg/kg/injection, schedule: Q01DX009 (ip), vehicle: saline with Tween-80); 99 % of control under setting [11]; 103 % of control under setting [12].

`O=c1n[n+]([O-])ccn1C1OC(CO)C(O)C1O` (configuration not stated): the T/C under setting [6] was 92 % of control and 108 % of control; the T/C under setting [7] was 102 % of control and 115 % of control; the T/C under setting [9] was 115 % of control and 120 % of control; the T/C (dose: 200.0 mg/kg/injection, schedule: Q01DX009 (ip), vehicle: saline) is 122 % of control.

For the compound `O=C(COc1ccc(Cl)cc1)Nc1cc(C(F)(F)F)ccc1Cl`, the T/C by setting is: under setting [15], 103 % of control; under setting [14], 96 % of control; under setting [8], 105 % of control.

On to `CSCCC1NC(=O)C(C(C)=Nc2ccccc2)=C1O` (configuration not stated), for which the T/C under setting [14] is 100 % of control, the T/C under setting [8] is 96 % of control and the T/C under setting [13] is 95 % of control.

As for `CN(/N=N/c1nc[nH]c1C(N)=O)C(C)(C)C`, the T/C reads like this: (dose: 18.75 mg/kg/injection, schedule: Q04DX002 (ip), vehicle: Klucel (hydroxypropylcellulose) (HPC)) 101 % of control; (dose: 37.5 mg/kg/injection, schedule: Q04DX002 (ip), vehicle: Klucel (hydroxypropylcellulose) (HPC)) 107 % of control; (dose: 75.0 mg/kg/injection, schedule: Q04DX002 (ip), vehicle: Klucel (hydroxypropylcellulose) (HPC)) 98 % of control; under setting [1], 95 % of control; (dose: 150.0 mg/kg/injection, schedule: Q04DX002 (ip), vehicle: Klucel (hydroxypropylcellulose) (HPC)) 101 % of control; under setting [2], 90 % of control. In addition, the T/C reads like this: (dose: 300.0 mg/kg/injection, schedule: Q04DX002 (ip), vehicle: Klucel (hydroxypropylcellulose) (HPC)) 93 % of control; under setting [3], 104 % of control.

Turning to `Cc1ccc(C(C)(N=[N+]=[N-])c2ccccc2)cc1C` (configuration not stated), the T/C under setting [15] was 94 % of control, the T/C under setting [14] was 93 % of control, the T/C under setting [8] was 90 % of control and the T/C under setting [13] was 90 % of control.
